# Measured values from patent US20230285570A1, “THERAPEUTICALLY USEFUL CURE-PRO MOLECULES FOR E3 LIGASE MEDIATED DEGRADATION OF PROTEINS, AND METHODS OF MAKING AND USING THEM” (CORNELL UNIVERSITY, priority 2020, published 2023).
# “Also recorded” adds a separate entry of the source.
# Columns and labels:
# Type in all cases: cell-based
# c-MYC [1] = target: T1, c-MYC (Homo sapiens, UniProt P01106); assay: CURE-PRO-mediated c-MYC degradation in HT29 cells, Western blot; set-up: endogenous in cells; host or cells: HT29
# Procedure: (§1) Namalwa, Ramosm HeLa, MCF7, or HT29 HCT116 cells (2.5-3×10^6) were treated for 24 hours with the indicated compounds solubilized in DMSO. The cells were washed in ice-cold PBS and were then lysed in RIPA lysis buffer (150 mM NaCl, 5 mM EDTA, 1% NP-40, 0.5% sodium deoxycholate, 0.1% SDS, 50 mM Tris, pH 8.0.) with Roche protease inhibitor complete cocktail and phosphatase inhibitors (10 mM sodium fluoride, 10 mM sodium pyrophosphate, 1 mM sodium orthovanadate and 20 mM β-glycerophosphate). The total protein concentrations were determined by Bradford Protein Assay (Pierce) and 10-20 μg of protein was loaded onto 4-15% Tris-Glycine gradient gels (Biorad). After standard gel electrophoresis, the separated proteins were transferred to PVDF membrane by wet transfer. The immunoblots were then blocked for 1 hour in 5% skim milk in TBST or 5% BSA in TBST, according to manufacturer's instructions, before an overnight incubation at 4° C. with indicated antibodies and membranes. Membranes were then incubated with the appropriate horseradish peroxidase-conjugated secondary antibodies (1:5,000 dilution) for 1 h at room temperature and the bands were visualized using the Clarity Max Western ECL Substrate (Biorad) and the ChemiDoc Imaging System (Biorad). Signal was detected with ECL Western Blotting Substrate (Pierce) and X-ray film processed with a Konica SRX-101 X-ray film processor or captured by Bio-Rad's Chemidoc Imaging system.
# HT29 cells (2.5×10^6) were treated for 24 h with the compounds solubilized in DMSO. Compounds were added at 10 nM-10 μM each, as indicated in the description of the figures. Standardized protein samples were electrophoresed and imaged as described in the immunoblotting section above. c-MYC monomers (10058-F4 derivatives comprising catechol linkers), and CRBN ligands, 8048 and 8049 (pomalidomide derivatives comprising boronic acid linkers) combined in a 1:1 ratio.
# HT29 cells (2.5×10^6) were treated for 24 h with the compounds solubilized in DMSO. Compounds were added at 100 nM-10 μM each.
# (§2) HT29 cells (2.5×10^6) were treated for 24 h with the compounds solubilized in DMSO. Compounds were added at 100 nM-10 μM each. Standardized protein samples were electrophoresed and imaged as described in the immunoblotting section above. c-MYC monomer, MYC-E1, (a 10058-F4 derivative comprising boronic acid linkers), and CRBN ligands, 8046, 8047 and 8066 (pomalidomide derivatives comprising diol linkers) combined in a 1:1 ratio.
# as §2, with “monomers, MYC-E6 (FIG. 90), MYC-E10 (FIG. 91), and MYC-E16 (FIG. 92) (10074-G5 derivatives” for “monomer, MYC-E1, (a 10058-F4 derivative”
# (§3) HT29 cells (2.5×10^6) were treated for 24 h with the compounds solubilized in DMSO. Compounds were added at 10 nM-10 μM each. Standardized protein samples were electrophoresed and imaged as described in the immunoblotting section above. c-MYC monomer, MYC-N16 (FIG. 93) (10074-G5 derivatives comprising diol linkers), and VHL ligands, 8297 and 8298 (VH-298 derivatives comprising boronic acid linkers) were combined in a 1:1 ratio.
# as §3, with “monomers, MYC-E7” for “monomer, MYC-N16”, “96), MYC-E10 (FIG. 97), and MYC-E17 (FIG. 98),” for “93)”, “boronic acid” for “diol”, “diol” for “boronic acid”
# c-MYC [2] = target: T1, c-MYC; assay: Summary of C-MYC degradation by CURE-PRO pairs, estimated from Western Blot or WES; set-up: endogenous in cells; host or cells: HT29; conditions: Table 11, aromatic 1,2-diol MYC ligand + 8310
# Summary of the method: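 Degradation read-out from immunoblot with ECL, or WES capillary electrophoresis with HRP detection, of RIPA lysates. Cells (Namalwa, Ramos, HeLa, MCF7, HT29 or HCT116) were exposed to DMSO-solubilized compounds for 24 h; a check mark marks 30% to 70% or higher degradation.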
# c-MYC [3] = target: T1, c-MYC; assay: CURE-PRO-mediated c-MYC degradation in HCT1116 cells, Western blot or WES; set-up: endogenous in cells; host or cells: HT29; conditions: 1:1 with MDM2 ligand 8312, HCT1116, 24 h, 10 nM-10 μM each
# Procedure: as §1
# WES Simple analysis was performed on WES system (ProteinSimple-Biotechne) according to the manufacturer's instructions. Total protein concentrations of cell lysates were determined by the Pierce BCA kit (Thermo Fisher). 3 μL of 0.3 μg/μL of the protein lysate was loaded onto a 12- to 230-kDa WES assay plate (ProteinSimple) where 300 nL sample was withdrawn through a capillary, subjected to electrophoretic separation of proteins by size, and followed by the simultaneous, HRP-based detection of proteins using the Anti-Rabbit Detection Module (Proteinsimple: #DM-001). The electropherograms were checked then the automatic peak detection was manually corrected if it was required.
# HCT1116 cells (2.5×10^6) were treated for 24 h with the compounds solubilized in DMSO. Compounds were added at 10 nM-10 μM each. Standardized protein samples were electrophoresed and imaged as described in the immunoblotting or WES (Proteinsimple) sections above. c-MYC monomers, MYC-N20 (FIG. 100, a 10074-G5 derivative comprising diol linkers), and MYC-N10 (FIG. 101), MYC-N6 (FIG. 102), and MYC-N9 (FIG. 103) (10058-F4 derivatives comprising diol linkers), and MDM2 ligands, 8310 and 8312 (Nutlin 3a derivatives comprising boronic acid linkers) were combined in a 1:1 ratio.
# HCT1116 cells (2.5×10^6) were treated for 24 h with the compounds solubilized in DMSO. Compounds were added at 1 μM-10 μM each.
# c-MYC [4] = target: T1, c-MYC; assay: as above; set-up: HT29 cells (2.5×10^6) were treated for 24 h with the compounds solubilized in DMSO; endogenous in cells; host or cells: HT29; conditions: 1:1 with MDM2 ligand 8310, HCT1116, 24 h, 10 nM-10 μM each
# c-MYC [5] = target: T1, c-MYC; assay: CURE-PRO-mediated c-MYC degradation in MCF7 cells, Western blot; set-up: endogenous in cells
# Procedure: as §1
# MCF7 cells (3×10^6) were treated for 24 h with the compounds solubilized in DMSO. Compounds were added at 100 nM-10 μM each. Standardized protein samples were electrophoresed and imaged as described in the immunoblotting section above. c-MYC monomer, MYC-E33 (FIG. 99) (a 10058-F4 derivatives comprising boronic acid linkers), and VHL ligands, 8304 and 8305 (VH-298 derivatives comprising diol linkers) were combined in a 1:1 ratio.
# T1 sequence (P01106 whole entry): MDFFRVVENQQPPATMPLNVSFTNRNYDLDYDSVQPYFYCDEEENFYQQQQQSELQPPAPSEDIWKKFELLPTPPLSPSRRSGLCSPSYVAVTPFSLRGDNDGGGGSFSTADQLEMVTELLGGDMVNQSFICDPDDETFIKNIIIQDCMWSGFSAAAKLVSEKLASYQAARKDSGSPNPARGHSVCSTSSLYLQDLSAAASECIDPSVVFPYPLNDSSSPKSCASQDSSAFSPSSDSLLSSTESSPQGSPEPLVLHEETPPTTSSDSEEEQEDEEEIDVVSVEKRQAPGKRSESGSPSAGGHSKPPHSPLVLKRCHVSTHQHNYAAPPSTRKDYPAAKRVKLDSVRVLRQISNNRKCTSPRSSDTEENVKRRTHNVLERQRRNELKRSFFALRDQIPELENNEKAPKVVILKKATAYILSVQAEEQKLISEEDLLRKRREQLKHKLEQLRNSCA
Structure (SMILES),"c-MYC degradation (c-MYC [1]; 1:1 with CRBN ligand 8048, HT29, 24 h, 10 nM-10 μM each)","c-MYC degradation (c-MYC [1]; 1:1 with CRBN ligand 8049, HT29, 24 h, 10 nM-10 μM each)","c-MYC degradation (c-MYC [1]; c-MYC monomer alone, HT29, 24 h, 10 nM-10 μM)","Degradation of C-MYC, combination with MDM2 ligand 8310 (c-MYC [2])",c-MYC degradation (c-MYC [3]),c-MYC degradation (c-MYC [4]),"c-MYC degradation (c-MYC [5]; 1:1 with VHL ligand 8304, MCF7, 24 h, 100 nM-10 μM each)","c-MYC degradation (c-MYC [5]; 1:1 with VHL ligand 8305, MCF7, 24 h, 100 nM-10 μM each)","c-MYC degradation (c-MYC [5]; c-MYC monomer alone, MCF7, 24 h, 100 nM-10 μM)"
CCc1ccc(/C=C2\SC(=O)N(CCOCCNC(=O)c3ccc(O)c(O)c3)C2=O)cc1 [MYC-N9],some degradation is noted; also recorded: caused degradation of c-MYC,produces greater c-MYC degradation than 8048; also recorded: caused degradation of c-MYC,there is no degradation of c-MYC,√ (A black check mark indicates efficacy of 30% to 70% or higher protein degradation),caused degradation of c-MYC at higher concentrations,caused degradation of c-MYC at higher concentrations,–,–,–
CCc1ccc(/C=C2\SC(=O)N(CCNC(=O)c3ccc(B(O)O)cc3)C2=O)cc1 [MYC-E33],–,–,–,–,–,–,caused partial degradation of c-MYC,no loss of c-MYC protein was observed,no loss of c-MYC protein was observed
